Data set [1] is described as follows: bidirectional transport across the MDCK-pHaMDR cell monolayer (in vitro BBB model). The settings on record: dog, MDCK-MDR1, pH 7.35. As to the method:
(§1) The MDCK-pHaMDR cells were seeded at a density of about 8 × 10^4 cells/mL on the 12-well Transwell® plates. After an eight-day culture, the cells reached confluence and differentiation for the transport study.
(§2) On the 8th day, the monolayers were washed twice and shaken at 55 rpm for 30 min with HBSS at 37 °C. Then, the TEER was measured with an epithelial volt-ohm meter (EVOM; World Precision Instrument) to examine the monolayer's integrity. Only those with the TEER values above 1000 Ω·cm^2 were qualified for the transport.
(§3) The bidirectional transport assay was initiated by adding a test compound to either the apical (0.5 mL for apical to basolateral transport, A→B) or the basolateral (1.5 mL for basolateral to apical transport, B→A) side. After shaking at 55 rpm and 37 °C for a certain time, samples (A→B: 400 µL from the apical side and 1300 µL from the basolateral side; B→A: 450 µL from the apical side and 450 µL from the basolateral side) were collected, immediately frozen, lyophilized and preserved below –20 °C before analysis.
(§4) Papp of each compound was calculated based on the following equation: (1) Papp = (ΔQ/Δt)/(AC0) (cm/s) where ΔQ/Δt is the appearance rate of the test compound at the receiver side (µmol/s), C0 is the initial concentration of the test compound at the donor side (µM), and A is the membrane surface area (cm^2). All of the experiments were conducted in triplicate.

Data set [2] relates to MDCK-pHaMDR cell monolayer. The data set is described as above. The note with it: classed by Papp against caffeine and atenolol. As to the method:
as §1, §2, §3, §4

Data set [3] concerns P-glycoprotein (P-gp). In words: in vitro. The settings on record: dog.

Each structure is given as a SMILES string.

From article PMC6274353, “The Blood-Brain Barrier Permeability of Lignans and Malabaricones from the Seeds of Myristica fragrans in the MDCK-pHaMDR Cell Monolayer Model” (Molecules, 2016) come the findings set out here.

For the compound `C/C=C/c1cc(OC)c2c(c1)[C@@H](C)[C@H](c1ccc(O)c(OC)c1)O2` (racemic) [Compound 1, Dehydrodiisoeugenol], in data set [1], the Papp A→B (in general, the apparent permeability from the apical to the basolateral side of a cell layer) at 90 min, 100 µM turned out to be 2.43 ± 0.32 ×10⁻⁶ cm/s; the Papp B→A (usually the apparent permeability from the basolateral to the apical side of a cell layer) at 90 min, 100 µM is 1.82 ± 0.18 ×10⁻⁶ cm/s; the Papp (commonly a coefficient for how fast a substance crosses the barrier) at 90 min, 100 µM was about 1 ×10⁻⁶ cm/s.

`C/C=C/c1cc(OC)c2c(c1)[C@@H](C)[C@H](c1ccc3c(c1)OCO3)O2` [Compound 3, licarin B]: in data set [1], the Papp A→B at 90 min, 100 µM is under 0.062 ×10⁻⁶ cm/s; the Papp B→A at 90 min, 100 µM was under 0.06 ×10⁻⁶ cm/s; the Papp at 90 min, 100 µM was at most 0.01 ×10⁻⁶ cm/s. Further, in data set [2], the “permeability (in words)” value is listed as “very poor permeability”.

Take `C/C=C/c1cc(OC)c2c(c1)[C@@H](C)[C@H](c1cc(OC)c3c(c1)OCO3)O2` [Compound 4, 3′-methoxylicarin B]: in data set [1], the Papp A→B at 90 min, 100 µM was under 0.057 ×10⁻⁶ cm/s; the Papp B→A at 90 min, 100 µM was under 0.055 ×10⁻⁶ cm/s; the Papp at 90 min, 100 µM is at most 0.01 ×10⁻⁶ cm/s. The “permeability (in words)” value in data set [2] is “very poor permeability”.

Turning to `COc1cc([C@H]2O[C@@H](c3ccc(O)c(OC)c3)[C@@H](C)[C@@H]2C)ccc1O` [Compound 8, verrucosin], in data set [1], the Papp A→B at 90 min, 100 µM is 10.9 ± 0.32 ×10⁻⁶ cm/s and the Papp B→A at 90 min, 100 µM was 20.4 ± 0.97 ×10⁻⁶ cm/s.

On to `COc1cc([C@H]2O[C@@H](c3ccc(O)c(OC)c3)[C@H](C)[C@@H]2C)ccc1O` [Compound 9, nectandrin B], for which, in data set [1], the Papp A→B at 90 min, 100 µM was 10.4 ± 1.49 ×10⁻⁶ cm/s and the Papp B→A at 90 min, 100 µM came to 15 ± 1.27 ×10⁻⁶ cm/s.

With `COc1cc(CC(C)C(C)Cc2ccc(O)c(OC)c2)ccc1O` (stereo not drawn) [Compound 10, dihydroguaiaretic acid], in data set [1], the Papp A→B at 90 min, 100 µM is under 0.145 ×10⁻⁶ cm/s; the Papp B→A at 90 min, 100 µM is under 0.14 ×10⁻⁶ cm/s; the Papp at 90 min, 100 µM was about 0.1 ×10⁻⁶ cm/s.

With `COc1cc([C@H]2c3cc(O)c(OC)cc3C[C@@H](C)[C@@H]2C)ccc1O` [Compound 11, guaiacin], in data set [1], the Papp A→B at 90 min, 100 µM was under 0.075 ×10⁻⁶ cm/s; the Papp B→A at 90 min, 100 µM is under 0.073 ×10⁻⁶ cm/s; the Papp at 90 min, 100 µM is at most 0.01 ×10⁻⁶ cm/s.

As for `COc1cc2c(cc1O)[C@H](c1ccc3c(c1)OCO3)[C@@H](C)[C@H](C)C2` [Compound 12, otobaphenol], in data set [1], the Papp A→B at 90 min, 100 µM is under 0.073 ×10⁻⁶ cm/s; the Papp B→A at 90 min, 100 µM was under 0.07 ×10⁻⁶ cm/s; the Papp at 90 min, 100 µM is at most 0.01 ×10⁻⁶ cm/s.

In data set [1], `O=C(CCCCCCCCc1ccccc1)c1c(O)cccc1O` [Compound 13, malabaricone A] displayed a Papp A→B at 90 min, 100 µM of under 0.038 ×10⁻⁶ cm/s; a Papp B→A at 90 min, 100 µM of under 0.037 ×10⁻⁶ cm/s; a Papp at 90 min, 100 µM of at most 0.01 ×10⁻⁶ cm/s.

In data set [1], `O=C(CCCCCCCCc1ccc(O)c(O)c1)c1c(O)cccc1O` [Compound 15, malabaricone C] displayed a Papp A→B at 90 min, 100 µM of 0.64 ± 0.07 ×10⁻⁶ cm/s; a Papp B→A at 90 min, 100 µM of 0.63 ± 0.04 ×10⁻⁶ cm/s; a Papp at 90 min, 100 µM of about 0.1 ×10⁻⁶ cm/s.

With `Cn1c(=O)c2c(ncn2C)n(C)c1=O` [caffeine, reference compound], the Papp in data set [1] came out at 24.4 ± 1.1 ×10⁻⁶ cm/s.

For `COC(=O)c1ccccc1-c1c2ccc(=N)cc-2oc2cc(N)ccc12` [rhodamin 123, rhodamine 123], the Papp B→A in data set [3] (MDCK-MDR1) was found to be 3.31 ± 0.12 ×10⁻⁶ cm/s; in data set [3] (MDCK-MDR1, with verapamil 100 µM) it was 1.52 ± 0.08 ×10⁻⁶ cm/s.
